Test results from ChEMBL document CHEMBL5543162, “Discovery of a Novel Orally Bioavailable FLT3-PROTAC Degrader for Efficient Treatment of Acute Myeloid Leukemia and Overcoming Resistance of FLT3 Inhibitors” (J Med Chem, 2024).

Key:
Assay type in all cases: functional, cell-based
[1] = tested on: MV4-11; assay: Antiproliferative activity against human MV4-11 cells expressing FLT3-ITD mutant incubated for 48 hrs by CCK8 assay; conditions: MV4-11, 48 h
[2] = tested on: MOLM-13; assay: Antiproliferative activity against human MOLM-13 cells incubated for 48 hrs by CCK8 assay; conditions: MOLM-13, 48 h
[3] = tested on: MOLM-13; assay: Antiproliferative activity against Sunitinib-resistant human MOLM-13 cells incubated for 48 hrs by CCK8 assay; conditions: MOLM-13, 48 h
[4] = tested on: MOLM-13; assay: Antiproliferative activity against Quizartinib-resistant human MOLM-13 cells incubated for 48 hrs by CCK8 assay; conditions: MOLM-13, 48 h

| Structure (SMILES) | IC50 [1] | IC50 [2] | IC50 [3] | IC50 [4] |
| --- | --- | --- | --- | --- |
| Cc1c(NC(=O)CN2CCN(C(=O)CCCCCCNc3cccc4c3C(=O)N(C3CCC(=O)NC3=O)C4=O)CC2)c[nH]c1/C=C1\C(=O)Nc2ccc(F)cc21 (configuration not stated) | 0.141 µM | 0.206 µM | – | – |
| Cc1c(NC(=O)CN2CCN(CC3CN(c4ccc5c(c4)C(=O)N(C4CCC(=O)NC4=O)C5=O)C3)CC2)c[nH]c1/C=C1\C(=O)Nc2ccc(F)cc21 (configuration not stated) | 0.126 µM | 0.333 µM | – | – |
| Cc1c(NC(=O)CN2CCN(C(=O)CCCCCCCCCCNc3cccc4c3C(=O)N(C3CCC(=O)NC3=O)C4=O)CC2)c[nH]c1/C=C1\C(=O)Nc2ccc(F)cc21 (configuration not stated) | 0.193 µM | 0.273 µM | – | – |
| Cc1c(NC(=O)CN2CCN(CC3CCN(c4cccc5c4C(=O)N(C4CCC(=O)NC4=O)C5=O)CC3)CC2)c[nH]c1/C=C1\C(=O)Nc2ccc(F)cc21 (configuration not stated) | 0.194 µM | 0.336 µM | – | – |
| CCN(CC)CCNC(=O)c1c(C)[nH]c(/C=C2\C(=O)Nc3ccc(F)cc32)c1C [SUNITINIB] | – | – | 1.46 µM | > 1 µM |
| Cc1c(NC(=O)CN2CCN(C(=O)CCOCCOCCNc3cccc4c3C(=O)N(C3CCC(=O)NC3=O)C4=O)CC2)c[nH]c1/C=C1\C(=O)Nc2ccc(F)cc21 (configuration not stated) | 0.201 µM | 0.686 µM | – | – |
| Cc1c(NC(=O)CN2CCN(C(=O)CCOCCOCCOCCNc3cccc4c3C(=O)N(C3CCC(=O)NC3=O)C4=O)CC2)c[nH]c1/C=C1\C(=O)Nc2ccc(F)cc21 (configuration not stated) | 0.396 µM | 0.445 µM | – | – |
| Cc1c(NC(=O)CN2CCN(C(=O)CCCCCCC(=O)NCCNc3cccc4c3C(=O)N(C3CCC(=O)NC3=O)C4=O)CC2)c[nH]c1/C=C1\C(=O)Nc2ccc(F)cc21 (configuration not stated) | 0.288 µM | 0.533 µM | – | – |
| Cc1ncsc1-c1ccc(CNC(=O)[C@@H]2C[C@@H](O)CN2C(=O)[C@@H](NC(=O)CCCCCC(=O)N2CCN(CC(=O)Nc3c[nH]c(/C=C4\C(=O)Nc5ccc(F)cc54)c3C)CC2)C(C)(C)C)cc1 | 0.216 µM | > 1 µM | – | – |
| Cc1ncsc1-c1ccc(CNC(=O)[C@@H]2C[C@@H](O)CN2C(=O)[C@H](NC(=O)CCCCCCCC(=O)N2CCN(CC(=O)Nc3c[nH]c(/C=C4\C(=O)Nc5ccc(F)cc54)c3C)CC2)C(C)(C)C)cc1 | 0.191 µM | > 1 µM | – | – |
| Cc1c(NC(=O)CN2CCN(C(=O)CCOCCNc3cccc4c3C(=O)N(C3CCC(=O)NC3=O)C4=O)CC2)c[nH]c1/C=C1\C(=O)Nc2ccc(F)cc21 (configuration not stated) | 0.326 µM | 0.542 µM | – | – |
| Cc1c(NC(=O)CN2CCN(C(=O)CCCCCCCNc3cccc4c3C(=O)N(C3CCC(=O)NC3=O)C4=O)CC2)c[nH]c1/C=C1\C(=O)Nc2ccc(F)cc21 (configuration not stated) | 0.0914 µM | 0.22 µM | – | – |
| Cc1c(NC(=O)CN2CCN(C(=O)CCCCCCCCCCCNc3cccc4c3C(=O)N(C3CCC(=O)NC3=O)C4=O)CC2)c[nH]c1/C=C1\C(=O)Nc2ccc(F)cc21 (configuration not stated) | 0.372 µM | > 1 µM | – | – |
| Cc1c(NC(=O)CN2CCN(C(=O)CCCCCC(=O)NCCNc3cccc4c3C(=O)N(C3CCC(=O)NC3=O)C4=O)CC2)c[nH]c1/C=C1\C(=O)Nc2ccc(F)cc21 (configuration not stated) | 0.169 µM | 0.487 µM | – | – |
| Cc1c(NC(=O)CN2CCN(C(=O)CCCCC(=O)NCCNc3cccc4c3C(=O)N(C3CCC(=O)NC3=O)C4=O)CC2)c[nH]c1/C=C1\C(=O)Nc2ccc(F)cc21 (configuration not stated) | 0.201 µM | 0.657 µM | – | – |
| Cc1ncsc1-c1ccc(CNC(=O)[C@H]2C[C@H](O)CN2C(=O)[C@@H](NC(=O)CCCCCCC(=O)N2CCN(CC(=O)Nc3c[nH]c(/C=C4\C(=O)Nc5ccc(F)cc54)c3C)CC2)C(C)(C)C)cc1 | 0.262 µM | 0.399 µM | – | – |
